What all share (assay type): in vivo
Experiment [1] relates to common ragweed (Ambrosia artemisiifolia L., AMBEL). Description: Pre-emerge greenhouse herbicide test, phytotoxicity rating. The following applies: 14 days after application, rating scale 0-100. In short, it runs like this:
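Visual 0–100 injury rating (100 = all plants dead) taken 14 days after treatment. Rates of 125–1000 g ai/ha in acetone, 187 l/ha, were sprayed onto soil one day post-sowing; pots were surface-watered to incorporate, then bottom-watered.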

Experiment [2] shares this test system. In words: Post-emerge greenhouse herbicide test, phytotoxicity rating. The following applies: 14 days after application, scale 0-100. In short, it runs like this:
(§1)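 Scores use a 0 (no damage) to 100 (complete kill) scale, taken 14 days after a foliar spray. Acetone solutions with 0.25% v/v non-ionic surfactant were applied by track sprayer at 187 l/ha and 63-1000 g ai/ha to bottom-watered 2-3 leaf plants.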

Experiment [3] has as its system Johnsongrass (Sorghum halepense, SORHA). The description is as above. The following applies: Sorghum halepense, post-emergence, 336 h, 14 days after application, scale 0-100; for pest or weed control at 63 g/ha: rate 63 g ai/ha; for pest or weed control at 500 g/ha: rate 500 g ai/ha. In short, it runs like this: as §1
In experiment [4] the test system is velvetleaf (Abutilon theophrasti, ABUTH). The description is as above. The settings on record: Abutilon theophrasti, post-emergence, 336 h, 14 days after application, scale 0-100; for pest or weed control at 63 g/ha: rate 63 g ai/ha; for pest or weed control at 500 g/ha: rate 500 g ai/ha. Put shortly: as §1
Experiment [5] deals with barnyardgrass (Echinochloa crusgalli, ECHCG). Described as above. The settings on record: Echinochloa crus-galli, post-emergence, 336 h, 14 days after application, scale 0-100; for pest or weed control at 63 g/ha: rate 63 g ai/ha; for pest or weed control at 500 g/ha: rate 500 g ai/ha. In short, it runs like this: as §1
For experiment [6], the system named is Broadleaf Weeds. Description: Post-emergent application in combination with other herbicides, percent control of broadleaf weeds. The settings on record: 31.25 g ai/ha. On the procedure: All test compounds were dissolved in acetone and applied to the test units in a volume of 187 l/ha. Test materials were applied at rates ranging from 125 g ai/ha to 1000 g ai/ha using a track sprayer equipped with a TJ8001E even flow flat fan spray nozzle. Plants were arranged on a shelf so that the top of the canopy (post-emerge) or top of the soil surface (pre-emerge) was 40-45 cm below the nozzle. Pressurized air was used to force the test solution through the nozzle as it was mechanically advanced (via electrically driven chain drive) over the top of all test plants/pots. This application simulates a typical commercial field herbicide application. […] For post-emerge tests, seeds were planted 8-21 days prior to the test to allow emergence and good foliage development prior to application of the test substances. At the time of the post-emerge application, plants of all species were usually at the 2-3 leaf stage of development. Post-emerge test units were always bottom-watered. At 14 days after application of the test materials, phytotoxicity ratings were recorded. A rating scale of 0-100 was used as previously described in Research Methods in Weed Science, 2nd edition, B. Truelove, Ed., Southern Weed Science Society, Auburn University, Auburn, Ala., 1977. Briefly, “0” corresponds to no damage and “100” corresponds to complete death of all plants in the test unit. This scale was used both to determine efficacy against weed species and damage to crop species. Herbicide activity data for various compounds of this invention, which are shown by compound number in Tables 1-9, are shown in Tables 13 and 14. […] (Note: Weed species abbreviations are from the Composite List of Weeds published by the Weed Science Society of America, 1989.) The following examples illustrate the utility of combinations of compounds of this invention and existing herbicides. The methods used are identical to those for the application of single compounds except the commercial formulations of existing herbicides were added to the spray mixture in the appropriate amounts before spraying. Combination Example 3. Post-emergent Application of Compound 9-1 with Nicosulfuron Combination Example 4. Postemergent Application of Compound 9-1 with Pyridate

What is called pest or weed control is how far the test organism was held down. For `O=c1n(-c2cc(Oc3ncccc3C(F)(F)F)c(Cl)cc2F)c(=S)n2n1CCCC2` [Compound 8-18, 2-[4-chloro-2-fluoro-5-(3-trifluoromethyl-2pyridyloxy)phenyl]hexahydro-3-thioxo-1H-[1,2,4]triazolo[1,2-a]pyridazin-1-one], the AMBEL phytotoxicity rating in experiment [1] (Rate 125 g al/ha) worked out at 100; in experiment [1] (Rate 500 g al/ha), 95. The “phytotoxicity rating AMBEL” value in experiment [2] (rate 63 g ai/ha) amounted to 95; in experiment [2] (rate 500 g ai/ha), 60. The pest or weed control at 63 g/ha in experiment [3] stood at 50%; in experiment [4], 100%; in experiment [5], 70%. The pest or weed control at 500 g/ha in experiment [3] was found to be 90%; in experiment [4], 100%; in experiment [5], 70%.
Regarding `O=c1n(-c2cc(Oc3ncccn3)c(Cl)cc2F)c(=S)n2n1CCCC2` [Compound 8-29, 2-[4-chloro-2-fluoro-5-(2-pyrimidyloxy)phenyl]hexahydro-3-thioxo-1H-[1,2,4]triazolo[1,2-a]pyridazin-1-one], the AMBEL phytotoxicity rating in experiment [1] (Rate 125 g al/ha) and in experiment [1] (Rate 500 g al/ha) was 100 throughout. The “phytotoxicity rating AMBEL” value in experiment [2] (rate 63 g ai/ha) was found to be 90; in experiment [2] (rate 500 g ai/ha), 100. The pest or weed control at 63 g/ha in experiment [3] turned out to be 90%; in experiment [4], 100%; in experiment [5], 80%. The pest or weed control at 500 g/ha in experiment [3], in experiment [4] and in experiment [5] was 100% in each case.
As for `Nn1c(C(F)(F)F)cc(=O)n(-c2cc(Oc3ncccc3[N+](=O)[O-])c(Cl)cc2F)c1=O` [Compound 9-1, 1-amino-3-[4-chloro-2-fluoro-5-(3-nitro-2-pyridyloxy)phenyl]-6-trifluoromethyl-1,2,3,4-tetrahydropyrimidine-2,4-dione], in experiment [6], the “Percent Control of Broadleaf Weeds ABUTH” value is reported as 60%, the “Percent Control of Broadleaf Weeds AMARE” value was determined as 60%, the “Percent Control of Broadleaf Weeds AMBEL” value is on record as 40% and the “Percent Control of Broadleaf Weeds CASOB” value turned out to be 0%. Also, in experiment [6], the “Percent Control of Broadleaf Weeds CHEAL” value worked out at 90% and the “Percent Control of Broadleaf Weeds IPOHE” value stood at 80%. Also, in experiment [6] (Combination Example 4), the “Percent Control of Broadleaf Weeds ABUTH” value came to 60%, the “Percent Control of Broadleaf Weeds AMARE” value was 60%, the “Percent Control of Broadleaf Weeds AMBEL” value is given as 40% and the “Percent Control of Broadleaf Weeds CASOB” value was found to be 0%. Moreover, in experiment [6] (Combination Example 4), the “Percent Control of Broadleaf Weeds CHEAL” value was determined as 90% and the “Percent Control of Broadleaf Weeds IPOHE” value came out at 80%. In experiment [3], this compound yielded a pest or weed control at 63 g/ha of 70% and a pest or weed control at 500 g/ha of 99%. In experiment [4], this compound gave a pest or weed control at 63 g/ha of 100% and a pest or weed control at 500 g/ha of 100%. In experiment [5], this compound yielded a pest or weed control at 63 g/ha of 30% and a pest or weed control at 500 g/ha of 100%.
Regarding `Nn1c(C(F)(F)F)cc(=O)n(-c2cc(Oc3ccc(Cl)cn3)c(Cl)cc2F)c1=O` [Compound 9-3, 1-Amino-3-[4-chloro-2-fluoro-5-(5-chloro-2-pyridyloxy)phenyl]-6-trifluoromethyl-1,2,3,4-tetrahydropyrimidine-2,4-dione], the pest or weed control at 63 g/ha in experiment [3] worked out at 10%; in experiment [4], 100%; in experiment [5] it was 0%. Besides, the pest or weed control at 500 g/ha in experiment [3] was determined as 90%; in experiment [4], 100%; in experiment [5], 90%.
